This is an account of results in patent US8796268B2, “Heteroaryls and uses thereof” (Millennium Pharmaceuticals, Inc., priority 2010, dated 2014).

What all share (assay type): biochemical
The target in one assay is T1, Human PI3K delta (Homo sapiens, UniProt O00329).
T1 construct: His (N); host or cells: SF9 insect cells (baculovirus)
Kind of assay: Human PI3K delta enzyme assay (HTRF). The conditions noted are these: concentration not given, b1389 states 1.0 μM for PI3K δ and γ; for inhibition at 1 µM: read-out: p110 delta Percent Inhibition. The essentials: (§1)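 Compounds were mixed with 25 uM ATP, then with 3.5 uM di-C8 PI(4,5)P2 and His-tagged PI3K isoform (β 5.25 nM, δ 0.75 nM, γ 5 nM) at pH 7.00. After 30 min at room temperature, EDTA stopped the reaction and PIP3 was measured by HTRF over 1 h.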
Background: TR-FRET usually uses a lanthanide donor and a delayed reading to cut background.

The next assay concerns the target T2, Human PI3K beta (Homo sapiens, UniProt P42338).
T2 construct: His (N); host or cells: SF9 insect cells (baculovirus)
Kind of assay: Human PI3K beta enzyme assay (HTRF). The conditions noted are these: concentration not given, b1387 states 1.1 μM for PI3K α and β; for inhibition at 1.1 µM: read-out: p110 beta Percent Inhibition. The essentials: as §1

For another assay, the target named is T3, Human PI3K alpha (Homo sapiens, UniProt P42336).
T3 construct: His (N); host or cells: SF9 insect cells (baculovirus)
T3 sequence (P42336 whole entry): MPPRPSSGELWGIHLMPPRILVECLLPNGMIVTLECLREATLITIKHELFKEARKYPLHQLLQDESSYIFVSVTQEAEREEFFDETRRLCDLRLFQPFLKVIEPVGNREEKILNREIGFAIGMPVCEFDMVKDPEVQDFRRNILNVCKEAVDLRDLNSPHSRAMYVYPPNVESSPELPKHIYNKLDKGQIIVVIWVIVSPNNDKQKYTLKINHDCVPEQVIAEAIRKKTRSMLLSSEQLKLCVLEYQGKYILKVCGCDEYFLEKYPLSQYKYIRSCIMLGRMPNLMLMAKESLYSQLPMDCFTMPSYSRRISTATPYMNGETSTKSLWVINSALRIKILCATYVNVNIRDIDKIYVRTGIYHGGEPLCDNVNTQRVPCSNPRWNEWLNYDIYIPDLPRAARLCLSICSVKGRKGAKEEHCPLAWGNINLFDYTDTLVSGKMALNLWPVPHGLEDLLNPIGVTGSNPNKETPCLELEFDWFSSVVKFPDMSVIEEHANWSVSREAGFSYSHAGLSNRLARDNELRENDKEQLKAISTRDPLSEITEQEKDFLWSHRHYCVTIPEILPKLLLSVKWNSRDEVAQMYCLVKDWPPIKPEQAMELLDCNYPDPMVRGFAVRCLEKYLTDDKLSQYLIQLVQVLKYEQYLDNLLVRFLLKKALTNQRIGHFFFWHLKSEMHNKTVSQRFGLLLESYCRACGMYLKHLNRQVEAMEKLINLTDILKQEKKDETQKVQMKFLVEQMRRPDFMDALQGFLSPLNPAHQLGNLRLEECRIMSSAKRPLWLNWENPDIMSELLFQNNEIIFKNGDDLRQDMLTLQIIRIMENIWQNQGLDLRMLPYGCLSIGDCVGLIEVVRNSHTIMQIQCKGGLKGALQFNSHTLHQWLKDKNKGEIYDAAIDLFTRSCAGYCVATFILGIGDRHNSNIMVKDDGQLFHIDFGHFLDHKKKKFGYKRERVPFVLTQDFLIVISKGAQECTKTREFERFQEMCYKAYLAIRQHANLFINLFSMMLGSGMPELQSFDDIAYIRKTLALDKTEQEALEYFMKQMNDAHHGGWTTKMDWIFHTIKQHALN
T3 sequence (P27986 whole entry partner): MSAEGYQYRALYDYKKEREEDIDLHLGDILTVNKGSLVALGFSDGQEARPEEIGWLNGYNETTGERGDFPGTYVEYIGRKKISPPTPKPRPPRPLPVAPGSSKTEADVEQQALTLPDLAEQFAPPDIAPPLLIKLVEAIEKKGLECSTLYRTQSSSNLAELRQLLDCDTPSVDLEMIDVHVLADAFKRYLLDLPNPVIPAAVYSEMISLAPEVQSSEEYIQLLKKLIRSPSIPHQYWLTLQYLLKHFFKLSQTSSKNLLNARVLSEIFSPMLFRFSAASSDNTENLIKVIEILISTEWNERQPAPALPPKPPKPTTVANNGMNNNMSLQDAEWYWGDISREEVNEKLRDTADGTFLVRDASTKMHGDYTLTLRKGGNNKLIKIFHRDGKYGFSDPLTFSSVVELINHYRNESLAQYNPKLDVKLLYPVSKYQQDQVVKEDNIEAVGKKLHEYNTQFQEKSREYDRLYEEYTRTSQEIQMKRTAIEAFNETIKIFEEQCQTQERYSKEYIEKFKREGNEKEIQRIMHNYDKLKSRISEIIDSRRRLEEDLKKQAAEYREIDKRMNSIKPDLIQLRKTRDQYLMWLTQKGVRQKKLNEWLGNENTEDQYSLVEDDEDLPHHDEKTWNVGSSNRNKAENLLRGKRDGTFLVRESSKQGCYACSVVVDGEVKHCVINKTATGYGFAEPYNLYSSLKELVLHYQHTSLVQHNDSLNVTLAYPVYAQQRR
Kind of assay: Human PI3K alpha enzyme assay (HTRF). The conditions noted are these: concentration not given, b1387 states 1.1 μM for PI3K α and β; for inhibition at 1.1 µM: read-out: p110 alpha Percent Inhibition.

The target in a further assay is T4, Human PI3K gamma (Homo sapiens, UniProt P48736).
T4 construct: His (N); host or cells: SF9 insect cells (baculovirus)
T4 sequence (P48736 whole entry): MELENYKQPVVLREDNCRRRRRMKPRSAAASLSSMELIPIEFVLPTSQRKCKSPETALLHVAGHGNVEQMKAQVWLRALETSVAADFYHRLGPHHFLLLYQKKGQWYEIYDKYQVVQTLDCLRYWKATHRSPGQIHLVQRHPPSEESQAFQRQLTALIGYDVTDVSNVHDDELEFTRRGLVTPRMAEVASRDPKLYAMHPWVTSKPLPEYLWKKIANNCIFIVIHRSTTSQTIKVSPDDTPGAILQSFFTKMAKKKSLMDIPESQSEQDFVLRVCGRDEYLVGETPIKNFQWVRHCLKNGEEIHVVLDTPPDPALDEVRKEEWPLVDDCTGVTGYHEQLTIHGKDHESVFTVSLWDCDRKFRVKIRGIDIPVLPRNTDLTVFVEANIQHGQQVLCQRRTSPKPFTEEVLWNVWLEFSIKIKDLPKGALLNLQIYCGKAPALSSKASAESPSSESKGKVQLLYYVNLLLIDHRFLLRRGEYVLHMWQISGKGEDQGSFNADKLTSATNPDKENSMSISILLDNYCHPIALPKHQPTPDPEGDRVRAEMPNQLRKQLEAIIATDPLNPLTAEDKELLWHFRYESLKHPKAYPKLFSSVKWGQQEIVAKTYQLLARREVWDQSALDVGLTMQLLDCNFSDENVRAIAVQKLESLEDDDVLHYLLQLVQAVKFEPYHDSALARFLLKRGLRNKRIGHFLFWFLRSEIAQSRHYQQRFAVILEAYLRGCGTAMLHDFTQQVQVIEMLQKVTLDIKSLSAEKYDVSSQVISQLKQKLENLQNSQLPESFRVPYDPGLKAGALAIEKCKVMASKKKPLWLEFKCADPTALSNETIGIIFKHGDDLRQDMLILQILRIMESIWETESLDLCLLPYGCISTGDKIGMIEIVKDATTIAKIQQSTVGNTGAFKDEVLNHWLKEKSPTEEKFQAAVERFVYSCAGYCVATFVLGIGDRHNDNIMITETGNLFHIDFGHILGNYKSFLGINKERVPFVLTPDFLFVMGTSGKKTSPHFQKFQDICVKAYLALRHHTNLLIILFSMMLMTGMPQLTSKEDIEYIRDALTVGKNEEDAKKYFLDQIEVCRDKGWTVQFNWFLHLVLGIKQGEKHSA
Kind of assay: Human PI3K gamma enzyme assay (HTRF). The conditions noted are these: concentration not given, b1389 states 1.0 μM for PI3K δ and γ; for inhibition at 1 µM: read-out: p110 gamma Percent Inhibition. The essentials:
as §1

T1 sequence (O00329 whole entry): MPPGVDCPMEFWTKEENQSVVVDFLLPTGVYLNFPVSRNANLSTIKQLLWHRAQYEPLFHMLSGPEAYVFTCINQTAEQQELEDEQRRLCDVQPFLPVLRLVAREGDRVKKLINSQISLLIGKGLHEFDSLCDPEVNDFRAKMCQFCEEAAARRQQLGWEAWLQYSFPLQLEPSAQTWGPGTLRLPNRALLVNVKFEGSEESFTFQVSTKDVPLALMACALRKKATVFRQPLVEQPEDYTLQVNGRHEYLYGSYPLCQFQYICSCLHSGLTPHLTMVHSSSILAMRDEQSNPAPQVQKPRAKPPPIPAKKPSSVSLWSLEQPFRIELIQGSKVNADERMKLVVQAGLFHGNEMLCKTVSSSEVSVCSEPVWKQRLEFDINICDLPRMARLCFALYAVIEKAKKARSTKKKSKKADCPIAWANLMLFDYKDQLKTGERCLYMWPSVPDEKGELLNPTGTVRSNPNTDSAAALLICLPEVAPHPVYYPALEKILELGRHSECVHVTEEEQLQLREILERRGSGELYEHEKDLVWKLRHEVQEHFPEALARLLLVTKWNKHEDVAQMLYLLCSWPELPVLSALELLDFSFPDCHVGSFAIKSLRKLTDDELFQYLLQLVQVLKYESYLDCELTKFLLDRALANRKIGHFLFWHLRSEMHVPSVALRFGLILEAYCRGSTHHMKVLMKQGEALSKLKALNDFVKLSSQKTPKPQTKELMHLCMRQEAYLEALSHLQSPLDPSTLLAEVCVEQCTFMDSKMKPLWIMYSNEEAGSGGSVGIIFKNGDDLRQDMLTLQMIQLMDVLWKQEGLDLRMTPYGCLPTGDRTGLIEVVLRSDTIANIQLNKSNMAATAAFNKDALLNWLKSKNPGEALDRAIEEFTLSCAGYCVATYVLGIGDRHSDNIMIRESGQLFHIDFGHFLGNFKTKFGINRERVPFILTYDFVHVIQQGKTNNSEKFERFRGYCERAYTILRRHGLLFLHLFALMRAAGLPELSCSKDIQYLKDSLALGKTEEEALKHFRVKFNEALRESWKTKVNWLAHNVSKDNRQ
T1 sequence (P27986 whole entry partner): as the sequence (P27986 whole entry partner) above
T2 sequence (P42338 whole entry): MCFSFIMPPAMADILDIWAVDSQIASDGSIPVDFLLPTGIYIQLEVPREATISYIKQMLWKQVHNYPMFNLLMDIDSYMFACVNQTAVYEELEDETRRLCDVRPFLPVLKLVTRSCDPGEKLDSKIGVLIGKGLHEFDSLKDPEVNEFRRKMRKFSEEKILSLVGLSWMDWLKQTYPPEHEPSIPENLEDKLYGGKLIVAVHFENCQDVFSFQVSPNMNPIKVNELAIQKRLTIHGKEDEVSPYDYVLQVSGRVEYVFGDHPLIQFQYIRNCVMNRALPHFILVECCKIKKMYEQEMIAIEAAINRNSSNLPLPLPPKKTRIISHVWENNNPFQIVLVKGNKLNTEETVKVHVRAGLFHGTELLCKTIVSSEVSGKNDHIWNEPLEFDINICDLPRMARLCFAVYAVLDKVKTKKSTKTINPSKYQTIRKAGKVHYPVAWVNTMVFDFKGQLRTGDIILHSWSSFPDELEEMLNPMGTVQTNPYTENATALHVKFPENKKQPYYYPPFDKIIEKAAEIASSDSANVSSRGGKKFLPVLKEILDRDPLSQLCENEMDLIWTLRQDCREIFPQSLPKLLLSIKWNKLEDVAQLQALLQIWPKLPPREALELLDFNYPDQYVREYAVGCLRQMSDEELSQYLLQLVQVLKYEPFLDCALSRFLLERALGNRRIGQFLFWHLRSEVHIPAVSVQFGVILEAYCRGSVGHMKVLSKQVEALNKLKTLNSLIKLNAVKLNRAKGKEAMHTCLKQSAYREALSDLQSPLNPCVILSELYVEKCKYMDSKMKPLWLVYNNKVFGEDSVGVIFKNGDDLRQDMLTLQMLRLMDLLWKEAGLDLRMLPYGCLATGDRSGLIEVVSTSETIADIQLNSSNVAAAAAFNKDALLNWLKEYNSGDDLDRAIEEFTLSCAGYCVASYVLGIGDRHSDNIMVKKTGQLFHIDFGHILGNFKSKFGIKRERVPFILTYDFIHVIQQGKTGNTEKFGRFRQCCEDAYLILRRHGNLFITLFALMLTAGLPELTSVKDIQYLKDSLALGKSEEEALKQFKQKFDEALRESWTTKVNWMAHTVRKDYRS
T2 sequence (P27986 whole entry partner): as the sequence (P27986 whole entry partner) above

`COc1cnc(Cl)cc1-c1cc(C(O)c2ccc(Cl)cc2)c(-c2nnc[nH]2)s1` (stereo not shown) [Compound 197]: the inhibition at 1 µM on Human PI3K delta is 19%; on Human PI3K gamma it was 4%. Further, the inhibition at 1.1 µM on Human PI3K beta was 23%; at Human PI3K alpha it was 15%.
Regarding `N#Cc1c(-c2ccnnc2)sc(-c2nnc[nH]2)c1C(O)c1ccc2ccccc2c1` (stereo not shown) [Compound 198], the inhibition at 1 µM on Human PI3K delta was 70%; on Human PI3K gamma, 35%. Further, the inhibition at 1.1 µM at Human PI3K beta was 108%; on Human PI3K alpha, 18%.
`OC(c1ccc(F)c(F)c1)c1cc(-c2ccncc2)sc1-c1nnc[nH]1` (stereo not shown) [Compound 199]: the inhibition at 1 µM amounted to 42% at Human PI3K delta and 16% on Human PI3K gamma. Further, the inhibition at 1.1 µM worked out at 64% at Human PI3K beta and 21% at Human PI3K alpha.
With `CC(=O)Nc1cc(-c2cc(C(c3ccc(Cl)cc3)N3CC(N)C3)c(-c3nnc[nH]3)s2)ccn1` (stereo not shown) [Compound 200], the inhibition at 1 µM on Human PI3K delta is 111%; at Human PI3K gamma, 60%. Moreover, the inhibition at 1.1 µM at Human PI3K beta amounted to 118%; on Human PI3K alpha, 101%.
The matching figures for `CC(=O)Nc1cc(-c2cc(C(c3ccc(Cl)cc3)N3CC(O)C3)c(-c3nnc[nH]3)s2)ccn1` (stereo not shown) [Compound 201]: 110%, 37%, 105% and 74%.
Taken in the same sequence, the figures for `COc1ccc(C(O)c2cc(-c3ccncc3)sc2-c2nnc[nH]2)cc1C` (stereo not shown) [Compound 202] were 54%, 8%, 80% and 12%.
For `OC(c1cc(-c2ccncc2)sc1-c1nnc[nH]1)c1c(F)ccc2ccccc12` (stereo not shown) [Compound 203], on Human PI3K delta, the “p110 delta Percent Inhibition” value is recorded as 67%. Further, the “p110 beta Percent Inhibition” value at Human PI3K beta is listed as 88%. Further, at Human PI3K alpha, the “p110 alpha Percent Inhibition” value is given as 10%. Also, the “p110 gamma Percent Inhibition” value at Human PI3K gamma came out at 16%.
With `O=C(O)c1sc(-c2ccncc2)cc1C(O)c1ccc2ccccc2c1` (stereo not shown) [Compound 205, 3-[hydroxy(2-naphthyl)methyl]-5-pyridin-4-ylthiophene-2-carboxylic acid], the inhibition at 1 µM at Human PI3K delta worked out at 83%; at Human PI3K gamma, 64%. The inhibition at 1.1 µM on Human PI3K beta is 114%; on Human PI3K alpha, 42%.
The matching figures for `CC(=O)Nc1cc(-c2cc(C(c3ccc(Cl)cc3)n3cccn3)c(-c3nnc[nH]3)s2)ccn1` (stereo not shown) [Compound 206]: 106%, 11%, 96% and 90%.
The matching figures for `OC(c1ccc(-c2ccncc2)cc1)c1cc(-c2ccncc2)sc1-c1nnc[nH]1` (stereo not shown) [Compound 207]: 51%, 9%, 83% and 27%.
Regarding `OC(c1ccc2ccccc2c1)c1cc(-c2ccncc2)sc1-c1nnc[nH]1` (stereo not shown) [Compound 208], the “p110 delta Percent Inhibition” value at Human PI3K delta was found to be 107%. On Human PI3K beta, the “p110 beta Percent Inhibition” value worked out at 108%. Besides, the “p110 alpha Percent Inhibition” value on Human PI3K alpha stood at 42%. For the same compound, the “p110 gamma Percent Inhibition” value at Human PI3K gamma was determined as 47%.
For the compound `CN[C@@H]1CCN(C(c2ccc(Cl)cc2)c2cc(-c3ccnc(NC(C)=O)c3)sc2-c2nnc[nH]2)C1` (stereo partly shown) [Compound 209], the inhibition at 1 µM was determined as 108% at Human PI3K delta and 34% on Human PI3K gamma. Also, the inhibition at 1.1 µM on Human PI3K beta came to 107%; at Human PI3K alpha it was 92%.
Taken in the same sequence, the figures for `O=C(O)c1sc(-c2ccncc2)cc1Cc1ccc2ccccc2c1` [Compound 210, 3-(2-naphthylmethyl)-5-pyridin-4-ylthiophene-2-carboxylic acid] were 92%, 68%, 110% and 52%.
Regarding `CC(=O)Nc1cc(-c2cc(C(N=[N+]=[N-])c3ccc(Cl)cc3)c(-c3nnc[nH]3)s2)ccn1` (stereo not shown) [Compound 211], the inhibition at 1 µM at Human PI3K delta turned out to be 106%; at Human PI3K gamma it was 13%. Further, the inhibition at 1.1 µM at Human PI3K beta and at Human PI3K alpha was 111% each time.
As for `CC(=O)Nc1cc(-c2cc(C(c3ccc(Cl)cc3)N3CC[C@@H](O)C3)c(-c3nnc[nH]3)s2)ccn1` (stereo partly shown) [Compound 212], the inhibition at 1 µM at Human PI3K delta is 112%; on Human PI3K gamma, 38%. In addition, the results for the inhibition at 1.1 µM at Human PI3K beta and on Human PI3K alpha were 109% and 87%, respectively.
The matching figures for `CC(=O)Nc1cc(-c2nc(Cc3ccc4ccccc4c3)c(-c3nnc[nH]3)s2)ccn1` [Compound 213]: 109%, 35%, 80% and 57%.
The matching figures for `OC(c1ccc(-c2cccnc2)cc1)c1cc(-c2ccncc2)sc1-c1nnc[nH]1` (stereo not shown) [Compound 214]: 46%, 14%, 84% and 46%.
The matching figures for `OC(c1ccc2c(c1)OCCO2)c1cc(-c2ccncc2)sc1-c1nnc[nH]1` (stereo not shown) [Compound 215]: 51%, 8%, 85% and 29%.
Turning to `CC(=O)Nc1cc(-c2cc(C(c3ccc(Cl)cc3)N3CC(F)(F)C3)c(-c3nnc[nH]3)s2)ccn1` (stereo not shown) [Compound 216], the figures for the inhibition at 1 µM on Human PI3K delta and at Human PI3K gamma were 99% and 11%, respectively. The inhibition at 1.1 µM worked out at 91% at Human PI3K beta and 64% on Human PI3K alpha.
The matching figures for `OC(c1ccccc1Cl)c1cc(-c2ccncc2)sc1-c1nnc[nH]1` (stereo not shown) [Compound 217]: 60%, 24%, 74% and 30%.
Taken in the same sequence, the figures for `CC(=O)Nc1cc(-c2sc(-c3nnc[nH]3)c(C(c3ccc(Cl)cc3)N3CCNCC3)c2C#N)ccn1` (stereo not shown) [Compound 218] were 97%, 14%, 102% and 61%.
The matching figures for `OC(c1ccc(Cl)cc1Cl)c1cc(-c2ccncc2)sc1-c1nnc[nH]1` (stereo not shown) [Compound 219]: 107%, 31%, 101% and 32%.
With `COC(c1ccc(Cl)cc1)c1cc(-c2ccnc(NC(C)=O)c2)sc1-c1nnc[nH]1` (stereo not shown) [Compound 220], the inhibition at 1 µM on Human PI3K delta was found to be 99%; at Human PI3K gamma it was 9%. The inhibition at 1.1 µM at Human PI3K beta is 91%; on Human PI3K alpha, 92%.
The matching figures for `CC(=O)Nc1cc(-c2cc(C(c3ccc(Cl)cc3)N3CCC(F)(F)CC3)c(-c3nnc[nH]3)s2)ccn1` (stereo not shown) [Compound 221]: 100%, 8%, 94% and 62%.
Regarding `CC(=O)Nc1cc(-c2cc(C(c3ccc(Cl)cc3)N(C)C3CCNCC3)c(-c3nnc[nH]3)s2)ccn1` (stereo not shown) [Compound 222], the figures for the inhibition at 1 µM at Human PI3K delta and at Human PI3K gamma were 102% and 9%, respectively. Besides, the inhibition at 1.1 µM at Human PI3K beta came out at 98%; at Human PI3K alpha, 68%.
Taken in the same sequence, the figures for `CC(=O)Nc1cc(-c2cc(C(c3ccc(Cl)cc3)N3CC[C@@H](CO)C3)c(-c3nc[nH]n3)s2)ccn1` (stereo partly shown) [Compound 223] were 102%, 21%, 94% and 67%.
Taken in the same sequence, the figures for `CC(=O)Nc1cc(-c2cc(C(c3ccc(Cl)cc3)N3CCN(S(C)(=O)=O)CC3)c(-c3nnc[nH]3)s2)ccn1` (stereo not shown) [Compound 224] were 103%, 15%, 92% and 70%.
In the case of `CC(=O)Nc1cc(-c2cc(/C(=C/CCN(C)C)c3ccc(Cl)cc3)c(-c3nnc[nH]3)s2)ccn1` [Compound 225], the values for the inhibition at 1 µM on Human PI3K delta and on Human PI3K gamma were 84% and 51%, respectively. The inhibition at 1.1 µM at Human PI3K beta was found to be 52%; at Human PI3K alpha, 51%.
On to `CC(=O)Nc1cc(-c2cc(C(NCCO)c3ccc(Cl)cc3)c(-c3nnc[nH]3)s2)ccn1` (stereo not shown) [Compound 226], for which the inhibition at 1 µM came to 93% on Human PI3K delta and 14% at Human PI3K gamma. The values for the inhibition at 1.1 µM at Human PI3K beta and on Human PI3K alpha were 98% and 46%, respectively.
Taken in the same sequence, the figures for `N#Cc1c(-c2ccnnc2)sc(-c2nnc[nH]2)c1C(c1ccc(Cl)cc1)N1CCNCC1` (stereo not shown) [Compound 227] were 24%, 3%, 76% and -2%.
The matching figures for `OC(c1cc(-c2ccncc2)sc1-c1nnc[nH]1)c1cccc2ccccc12` (stereo not shown) [Compound 228]: 57%, 11%, 94% and 24%.
